Test results as given in patent US7087721B2, “Compositions, kits and treating methods for alteration cell-cell adhesion, transport, or permeation properties of tissues” (priority 2003, dated 2006).
“Also recorded” adds a separate entry of the source.

Tests used:
Type in all cases: cell-based, human
[1] = tested on: TMG-expressed A2058 cells; assay: Carbohydrate specificity for TM-mediated cell adhesion, TMG cells; conditions: 37° C. overnight, light microscopy
Method: A variety of simple carbohydrate (D-mannose, D-galactose, D-lactose, D-glucose, D-xylose), heparin, LMW heparin, chondroitin sulfate A, chondroitin sulfate B, and chondroitin sulfate C were tested to determine their ability to block cell-cell adhesion of the TMG cells. In these experiments, the carbohydrate to be tested was added to the cell monolayer to compare its ability to compete with the TMG. The plates were then incubated at 37° C. for overnight and examined by light microscopy (Leica Model DM IL).
FIG. 8. Effect of different carbohydrates on the cell adhesion of TMG cells. TMG-expressed A2058 cells were challenged with 20 mg/ml of monosaccharides (including D-glucose, D-galactose, D-lactose, D-xylose, D-mannose), 20 mg/ml of chondroitin sulfate A, B, C, or 15 mg/ml of heparin, LMW heparin. Following incubation at 37° C. overnight, images were obtained. Each image is representative of the observations from three separate experiments.

A2058TMG cells = assay: Calcium-switch method, A2058TMG cells; conditions: 4 mM EGTA, 40 min
Method: (§1) Cells were grown overnight on glass coverslips at a constant density (5×10^4 cells/well) in 24 well culture plates. The cells were serum-starved for 8 h and Ca^2+ was removed by incubation with DMEM medium containing 4 mM ethyleneglycol-bis-(Amino-Ethyl-Ether) N,N,N′,N′-tetraacetic acid (EGTA) and 1 mM MgCl2 at 37° C. After 1 h, the DMEM medium containing 1.8 mM Ca^2+ was added to replace the Ca^2+-free medium. In control experiments, cells received fresh media in the absence of EGTA. In selected experiments, 10 μg/ml of anti-TM lectin-like antibody, 10 μg/ml of isotype-specific control antibody or anti-E-cadherin antibody (20 μg/ml) was added to the Ca^2+-containing medium.
(§2) FIG. 6. TM participates in Ca^2+-dependent cell-cell adhesion. A2058TMG (A–E) and HaCaT cells (F–J) were left untreated (A, F) or treated with 4 mM EGTA for 40 min (B–E, G–J). The EGTA containing medium was then replaced with Ca^2+-containing medium in the presence of 10 μg/ml control IgG (C, H) for 1 h. After treatment with EGTA, cells were incubated for 1 h in medium containing 1.8 mM Ca^2+ and 10 ? g/ml function-blocking anti-lectin-like antibody (D, I), or anti-E-cadherin antibody (E, J). Green fluorescence shown in panels A to E is the GFP-tagged TM proteins, whereas panels F to J indicate the TM distribution by anti-EGF-like domain antibody detected with tetramethylrhodamine-conjugated anti-mouse antibody. […]

HaCaT cells = assay: Calcium-switch method, HaCaT cells; conditions: 4 mM EGTA, 40 min
Method: as §1, §2

| Molecule | ability to disperse the close clustering morphology of TMG culture cells ([1]; 20 mg/ml) | also measured |
| --- | --- | --- |
| heparin |  | ability to disperse the close clustering morphology of TMG culture cells ([1]; 15 mg/ml): minor inhibitory effect on the cell adhesion |
| O=C[C@H](O)[C@@H](O)[C@@H](O)[C@H](O)CO [D-galactose] | only mannose was found to be effective |  |
| chondroitin 4-sulfate [chondroitin sulfate A] | could induce cell dispersion |  |
| dermatan sulfate [chondroitin sulfate B] | no effect |  |
| chondroitin 6-sulfate [chondroitin sulfate C] | could induce cell dispersion |  |
| O=C[C@H](O)[C@@H](O)[C@H](O)[C@H](O)CO [D-glucose] | only mannose was found to be effective |  |
| OC[C@H]1O[C@@H](O[C@H]2[C@H](O)[C@@H](O)C(O)O[C@@H]2CO)[C@H](O)[C@@H](O)[C@H]1O (stereo partly drawn) [D-lactose] | only mannose was found to be effective |  |
| O=C[C@H](O)[C@@H](O)[C@H](O)CO [D-xylose] | only mannose was found to be effective |  |
| O=C(O)CN(CCOCCOCCN(CC(=O)O)CC(=O)O)CC(=O)O [EGTA, ethyleneglycol-bis-(Amino-Ethyl-Ether) N,N,N′,N′-tetraacetic acid] |  | cell-to-cell contacts in EGTA-containing medium (A2058TMG cells): disrupted; cell-to-cell contacts in EGTA-containing medium (HaCaT cells): disrupted |
| O=C[C@@H](O)[C@@H](O)[C@H](O)[C@H](O)CO [D-mannose] | effective in inducing of cell dispersion; also recorded: highest dispersing effect |  |
